{"source": "patent US8609689B2", "about": "“Pyridopyrazinones derivatives insulin secretion stimulators, methods for obtaining them and use thereof for the treatment of diabetes” (Merck Patent GmbH, priority 2008, dated 2013)", "key": {"[1]": {"system": "diabetic N0STZ rat islets", "assay": "Insulin secretion in diabetic N0STZ rat islets", "type": "cell-based", "settings": "90 min, Means±SEM", "method": "14±3 weeks non-fasted N0STZ (PORTHA et al., 1974) male rats (Charles Rivers-Domaine des Oncins, I'Arbresle, France) were anesthetized with sodium pentobarbital (Nembutal®: 45 mg/kg in 5 ml/kg administered intra peritoneally) and body temperature was maintained with a heat lamp.\nRat pancreatic islets of Langerhans were isolated from the pancreas of 8 rats by collagenase P (Boehringer, Meylan, France) digestion. Islets were purified by sedimentation in Hanks balanced salt solution [NaCl (137 mM); KCl (5.36 mM); MgSO4, 7 H2O (0.81 mM); Na2HPO4, 12 H2O (0.34 mM); KH2PO4 (0.44 mM); CaCl2, 2 H2O (1.26 mM); NaHCO3 (4.17 mM)] followed by Ficoll gradient separation. Islets were then hand-picked under stereoscopic microscope and batches of 3 islets were incubated for 90 minutes at 37° C. with continuous shaking under a humidified condition ([…], 5% CO2) in 1 ml of Krebs/Hepes pH 7 solution [NaCl (115 mM), NaHCO3 (24 mM), KCl (5 mM), MgCl2 (1 mM), CaCl2, 2 H2O (1 mM), 0.2% of Bovine serum albumin (Fraction V, fatty acid free, Boehringer, Mannheim), 10 mM Hepes] containing the required glucose or compound concentration. Compounds were dissolved in DMSO at 2.10-2M stock solutions. They were then diluted at the required concentration in Krebs/Hepes buffer containing the required glucose concentration.\nAt the end of incubation, media was collected and insulin levels were measured using ELISA (EUROBIO, Courtaboeuf, France).\nIslets were hand-picked and incubated in the presence of increasing concentrations of compounds in the presence of glucose at 2.8 or 8 mM. At the end of incubation, media was collected and insulin levels were measured using ELISA method. Results are expressed as % of glucose control (2.8 or 8 mM) and represent Means±SEM."}, "[2]": {"system": "INS-1 cells", "assay": "Insulin secretion assay in INS-1 cells (glucose at 4.2 mM)", "type": "cell-based, rat", "settings": "1 h incubation; for activity at 10 µM: Rattus norvegicus, INS1, glucose 4.2 mM, compound 10 μm, read-out: Insulin secretion, % of ctrl at 10 μm of cpd; for Insulin secretion, % of ctrl at 50 μm of cpd: glucose 4.2 mM, compound 50 μm", "method": "INS-1 cells were cultured in complete medium, RPMI1640 containing 1 mM sodium pyruvate, 50 μM 2-mercaptoethanol, 2 mM glutamine, 10 mM HEPES, 100 IU/mL penicillin, and 100 μg/mL streptomycin (CM), supplemented with 10 mM glucose, and 10% (vol/vol) heat-inactivated fetal […] (FCS), as described by Asfari et al. (Endocrinology 130: 167-178, 1992).\nINS-1 cells were plated and cultured in 48-well plates. After 2 days of culture, the medium was removed and cells were cultured for 24 h with a medium change to 5 mM glucose, 1% FCS. The cells were then washed with Krebs-Ringer Bicarbonate HEPES buffer (KRBH; 135 mM NaCl; 3.6 mM KCl; 5 mM NaHCO3; 0.5 mM NaH2PO4; 0.5 mM MgCl2; 1.5 mM CaCl2 and 10 mM HEPES; pH 7.4) 0.1% BSA containing 2.8 mM glucose and preincubated for 30 min at 37° C. in the same buffer. The cells were then washed twice and incubated for 1 h in KRBH 0.1% BSA containing 4.2 mM glucose and different concentrations of the tested molecule. Insulin concentration in the collected supernatants was measured with ELISA using rat insulin antibody (Insulin Rat Elit PLUS, cat, ref 10-1145-01).\nInsulin secretion results are expressed in % of control (glucose 4.2 mM)."}, "[3]": {"settings": "glucose 2.8 mM, compound 10−4 M"}}, "data": [{"smiles": "O=c1c(-c2ccc(Cl)cc2)nc2cccnc2n1CC1CC1", "note": "[Example 3, 2-(4-chlorophenyl)-4-cyclopropylmethylpyrido[2,3-b]pyrazin-3(4H)-one]", "values": [{"measurement": "Insulin secretion, % of glucose control", "setting": "[1]; [3]", "value": "85 ± 8 % of glucose control"}, {"measurement": "Insulin secretion, % of glucose control", "setting": "[1]; glucose 8 mM, compound 10−4 M", "value": "168 ± 7 % of glucose control"}, {"measurement": "Insulin secretion, % of glucose control", "setting": "[1]; glucose 8 mM, compound 10−5 M", "value": "145 ± 9 % of glucose control"}, {"measurement": "Insulin secretion, % of glucose control", "setting": "[1]; glucose 8 mM, compound 10−6 M", "value": "110 ± 7 % of glucose control"}, {"measurement": "Insulin secretion, % of glucose control", "setting": "[1]; glucose 8 mM, compound 10−7 M", "value": "100 ± 7 % of glucose control"}, {"measurement": "activity at 10 µM", "setting": "[2]", "value": 241, "unit": "%"}, {"measurement": "Insulin secretion, % of ctrl at 50 μm of cpd", "setting": "[2]", "value": "398 % of ctrl"}]}, {"smiles": "CCn1c(=O)c(-c2ccc(Cl)cc2)nc2cccnc21", "note": "[Example 3-2, 2-(4-chlorophenyl)-4-ethylpyrido[2,3-b]pyrazin-3(4H)-one]", "values": [{"measurement": "activity at 10 µM", "setting": "[2]", "value": 240, "unit": "%"}, {"measurement": "Insulin secretion, % of ctrl at 50 μm of cpd", "setting": "[2]", "value": "263 % of ctrl"}]}, {"smiles": "CCn1c(=O)c(-c2ccc(F)cc2)nc2cccnc21", "note": "[Example 3-3, 2-(4-fluorophenyl)-4-ethylpyrido[2,3-b]pyrazin-3(4H)-one]", "values": [{"measurement": "activity at 10 µM", "setting": "[2]", "value": 235, "unit": "%"}, {"measurement": "Insulin secretion, % of ctrl at 50 μm of cpd", "setting": "[2]", "value": "251 % of ctrl"}]}, {"smiles": "CCn1c(=O)c(-c2ccccc2)nc2cccnc21", "note": "[Example 3-4, 4-ethyl-2-phenylpyrido[2,3-b]pyrazin-3(4H)-one]", "values": [{"measurement": "activity at 10 µM", "setting": "[2]", "value": 226, "unit": "%"}, {"measurement": "Insulin secretion, % of ctrl at 50 μm of cpd", "setting": "[2]", "value": "302 % of ctrl"}]}, {"smiles": "O=c1c(-c2ccc(Cl)cc2)nc2cccnc2n1C1CC1", "note": "[Example 3-5, 2-(4-chlorophenyl)-4-cyclopropylpyrido[2,3-b]pyrazin-3(4H)-one]", "values": [{"measurement": "activity at 10 µM", "setting": "[2]", "value": 418, "unit": "%"}, {"measurement": "Insulin secretion, % of ctrl at 50 μm of cpd", "setting": "[2]", "value": "610 % of ctrl"}]}, {"smiles": "O=c1c(-c2ccc(F)cc2)nc2cccnc2n1C1CC1", "note": "[Example 3-6, 4-cyclopropyl-2-(4-fluorophenyl)pyrido[2,3-b]pyrazin-3(4H)-one]", "values": [{"measurement": "activity at 10 µM", "setting": "[2]", "value": 231, "unit": "%"}, {"measurement": "Insulin secretion, % of ctrl at 50 μm of cpd", "setting": "[2]", "value": "255 % of ctrl"}]}, {"smiles": "O=c1c(-c2ccc(F)cc2)nc2cccnc2n1CC1CC1", "note": "[Example 3-7, 4-cyclopropylmethyl-2-(4-fluorophenyl)pyrido[2,3-b]pyrazin-3(4H)-one]", "values": [{"measurement": "Insulin secretion, % of glucose control", "setting": "[1]; [3]", "value": "84 ± 10 % of glucose control"}, {"measurement": "Insulin secretion, % of glucose control", "setting": "[1]; glucose 8 mM, compound 10−4 M", "value": "228 ± 12 % of glucose control"}, {"measurement": "Insulin secretion, % of glucose control", "setting": "[1]; glucose 8 mM, compound 10−5 M", "value": "210 ± 9 % of glucose control"}, {"measurement": "Insulin secretion, % of glucose control", "setting": "[1]; glucose 8 mM, compound 10−6 M", "value": "149 ± 9 % of glucose control"}, {"measurement": "Insulin secretion, % of glucose control", "setting": "[1]; glucose 8 mM, compound 10−7 M", "value": "124 ± 7 % of glucose control"}, {"measurement": "activity at 10 µM", "setting": "[2]", "value": 208, "unit": "%"}, {"measurement": "Insulin secretion, % of ctrl at 50 μm of cpd", "setting": "[2]", "value": "221 % of ctrl"}]}, {"smiles": "O=c1c(-c2ccc(Cl)cc2)nc2cccnc2n1CC(F)F", "note": "[Example 3-8, 2-(4-chlorophenyl)-4-(2,2-difluoroethyl)pyrido[2,3-b]pyrazin-3(4H)-one]", "values": [{"measurement": "activity at 10 µM", "setting": "[2]", "value": 273, "unit": "%"}]}, {"smiles": "Cc1ccnc2c1nc(-c1ccc(Cl)cc1)c(=O)n2C1CC1", "note": "[Example 3-13, 2-(4-chlorophenyl)-4-cyclopropyl-8-methylpyrido[2,3-b]pyrazin-3(4H)-one]", "values": [{"measurement": "melting point", "value": "159 to 163", "unit": "°C"}]}, {"smiles": "COCCn1c(=O)c(-c2ccc(F)cc2)nc2cccnc21", "note": "[Example 3-16, 2-(4-fluorophenyl)-4-(2-methoxyethyl)pyrido[2,3-b]pyrazin-3(4H)-one]", "values": [{"measurement": "melting point", "value": "124 to 127", "unit": "°C"}, {"measurement": "activity at 10 µM", "setting": "[2]", "value": 254, "unit": "%"}]}, {"smiles": "CC(C)n1c(=O)c(-c2ccc(Cl)cc2)nc2cccnc21", "note": "[Example 3-18, 2-(4-chlorophenyl)-4-isopropyl-pyrido[2,3-b]pyrazin-3(4H)-one]", "values": [{"measurement": "activity at 10 µM", "setting": "[2]", "value": 338, "unit": "%"}]}, {"smiles": "Cc1cc(F)ccc1-c1nc2cccnc2n(C2CC2)c1=O", "note": "[Example 6-2, 4-cyclopropyl-2-(4-fluoro-2-methylphenyl)pyrido[2,3-b]pyrazin-3(4H)-one]", "values": [{"measurement": "melting point", "value": "165 to 167", "unit": "°C"}]}]}
